From patent EP0247464A1, “New quinolone compounds and a process for the preparation thereof” (FUJISAWA PHARMACEUTICAL CO., LTD., priority 1986, dated 1987) come the findings set out here.

One data set relates to Vibrio anguillarum NP-1. Briefly: Minimal Inhibitory Concentration (MIC), antibacterial activity against fish-disease strain. The data set is classed as cell-based. Conditions: NP1, 2.5% sodium chloride added Heart Infusion Agar, 20 hours incubation at 25°C. Here is the method: MICs againstvibrio anguillarum originated in fish diseases were obtained by the following method. An overnight culture broth of each strain was diluted 10-fold (approximately 10^6 cells/ml) and was stamped on 2.5% sodium chloride added Heart Infusion Agar containing graded concentrations of the test compounds, and MICs were expressed in terms of pg/ml after 20 hours incubation at 25°C.

Data set [1] has as its system Mycoplasma pulmonis PG-22. Briefly: Minimal Inhibitory Concentration (MIC), antimycoplasmal activity, agar dilution method. The format is cell-based. Conditions: PG22, 37°C for 3 to 4 days, 5 per cent carbon dioxide, lowest concentration completely inhibiting colony growth. The protocol: MICs of test compound were obtained by the agar dilution method.
Agar plates contained two-fold decremental dilutions of the test compound, ranging from 0.05 to 100 pg/ml. The inoculum (0.01 ml, containing approximately 10^5 CFU/ml of liquid medium which had been cultured at 37°C for 3 days) was plated on moisture-free media surfaces. Plates were placed in a humidified atmosphere of 5 per cent carbon dioxide and 95 per cent air, and incubated at 37°C for 3 to 4 days. The colonies grown on the plate were observed under a low microscopic magnification (x60).
A general note: Agar dilution tests growth on a series of plates holding different concentrations.

A further data set in a line: Acute toxicity in mice. To be noted: 100 mg/kg injected into lateral vein, ICR-strain male mouse, 5 mice, observed for 7 days. The data set is classed as in vivo. The protocol:
The test compound (16 mg) was dissolved in 1N NaOH (0.1 ml) and steril distilled water (3.9 ml).

For orientation: MIC means the lowest concentration found to suppress growth. A lower MIC goes with a more susceptible organism.

≈ marks a conversion by molar mass, not a printed value.

Regarding `O=C(O)c1cn(C2CC2)c2c(F)c(N3CCNCC3)c(F)c(F)c2c1=O` [compound (I-d), 1-Cyclopropyl-5,6,8-trifluoro-7-(1-piperazinyl)-4-quinolone-3-carboxylic acid], the MIC (in the data set on Vibrio anguillarum NP-1; in data set [1]) was 0.1 µg/mL (≈ 0.272 µM) each time. In the data set “Acute toxicity in mice”, the “Survivals / test mice” value is reported as 5 / 5.
